One series addresses T1, pancreatic lysate lipase (Mus musculus, UniProt Q6P8U6).
T1 construct: efficacy against mouse pancreatic lysates; other: summary of strengths of 767; efficacy as a solution when left overnight; other: solution left overnight; efficacy in the lipase activity assay compared with orlistat when fresh; other: fresh solution; IC50 of orlistat after overnight incubation (nearest tested concentration); other: after overnight incubation; improvement in stability and e
T1 sequence (Q6P8U6 17-465): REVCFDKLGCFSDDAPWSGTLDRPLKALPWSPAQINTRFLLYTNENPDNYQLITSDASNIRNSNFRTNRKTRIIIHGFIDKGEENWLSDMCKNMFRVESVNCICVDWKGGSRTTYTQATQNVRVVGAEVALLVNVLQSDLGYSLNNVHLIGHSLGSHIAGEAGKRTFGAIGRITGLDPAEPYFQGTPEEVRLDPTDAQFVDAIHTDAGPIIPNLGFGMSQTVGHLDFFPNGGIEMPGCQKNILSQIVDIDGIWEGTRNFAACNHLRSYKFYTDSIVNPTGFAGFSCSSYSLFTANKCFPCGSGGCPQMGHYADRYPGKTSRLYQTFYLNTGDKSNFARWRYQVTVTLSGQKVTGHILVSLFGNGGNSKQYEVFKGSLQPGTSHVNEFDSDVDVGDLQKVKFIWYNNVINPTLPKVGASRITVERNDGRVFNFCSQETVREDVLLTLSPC
Briefly: Lipase activity assay with pancreatic lysate (commercial Pointe scientific lipase assay). In kind it is biochemical. The method, then: To test the efficacy of these compounds, the agents were dissolved as a 20 mM stock in ethanol, and further diluted to in PBS as a 600 micromolar working stock (3.3% ethanol). This was either used immediately or left at room temperature for 16-20 hours overnight before retesting efficacy. The agents were incubated with a pancreatic lysate in serial ⅓ dilutions spanning a range of 200 to 0.3 micromolars for 30 minutes. 5 microliters of these mixtures were then used to measure lipase activity using a commercial lipase assay (Pointe scientific) containing a monoacyl glycerol lipase in the reagent. The lipase assay was done using reagents in proportion to the recommended protocol. Values were depicted as % maximal lipase activity of the well without any inhibitor.

Series [1] relates to Propionibacterium acnes (Strain VPI0389, ATCC). The experiment in a line: Lipolysis / FFA generation by P. acnes culture. The class given is cell-based. Conditions: broth FFA generation and spirit blue agar. On the procedure:
For medium, 2.0 g of Casein hydrolysate enzymatic digest (Cat #12855, Affymetrix Inc, Ohio, USA), 1.0 g of Yeast extract (Cat #61180-5000, Acros organics, New Jersey, USA) and 0.03 g of Victoria Blue B (Cat #sc-216055, Santa Crutz Biotechnology Inc, California, USA) were dissolved completely in 200 ml of double distilled water with mild heating. The mixed solution was sterilized by autoclaving at 15 lbs pressure (121° C.) for 15 min. The autoclaved solution allowed to cool down to 50° C., then 6 ml of emulsified lipase substrate slowly added with continuous stirring to get an even distribution and stored at 4° C. for P. acnes culture.
Lipase substrate preparation: Lipase substrate was prepared by mixing 200 μl of Tween 80 (Cat #P4780, Sigma, St louis, USA) in 100 ml of warm double distilled water and 25 ml of Cotton seeds oil (Cat #C0145, Spectrum chemical, California, USA). […]
A small part of lyophilized Propionibacterium acnes (Strain VPI0389, ATCC) was added to the medium and allowed to grow at 37° C. for 48 h in a BD GasPak EZ standard incubation container (Cat #260671, Beckton Dickinson, MD, USA) with two anaerobe Sachets (Cat #260683, Beckton Dickinson, MD, USA) which maintained the anaerobic condition within the container. After 48 h of culture, bacterial count was measured by turbidity (OD600 nm) method. […]

Series [2] concerns the target T2, recombinant human pancreatic tri-acyl glycerol lipase [PNLIP; hPTL] (Homo sapiens, UniProt P16233).
T2 sequence (P16233 17-465): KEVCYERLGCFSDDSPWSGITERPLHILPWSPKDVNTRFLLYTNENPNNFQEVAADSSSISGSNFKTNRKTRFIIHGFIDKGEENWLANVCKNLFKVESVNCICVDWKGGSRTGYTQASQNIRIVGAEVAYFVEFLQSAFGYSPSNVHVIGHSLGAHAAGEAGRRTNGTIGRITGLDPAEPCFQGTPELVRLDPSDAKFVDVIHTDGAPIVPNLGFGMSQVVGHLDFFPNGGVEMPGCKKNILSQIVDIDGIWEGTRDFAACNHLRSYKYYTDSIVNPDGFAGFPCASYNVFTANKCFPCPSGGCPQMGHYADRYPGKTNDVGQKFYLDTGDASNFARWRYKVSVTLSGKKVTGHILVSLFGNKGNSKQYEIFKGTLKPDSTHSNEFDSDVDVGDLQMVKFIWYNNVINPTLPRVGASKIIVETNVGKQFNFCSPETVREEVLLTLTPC
T2 sequence (P04118 23-112 partner): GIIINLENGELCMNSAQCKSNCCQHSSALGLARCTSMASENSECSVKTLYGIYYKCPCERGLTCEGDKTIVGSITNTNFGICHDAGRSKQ
Briefly: FFA generation from glyceryl trilinoleate by recombinant hPNLIP with colipase. In kind it is biochemical. The method, then:
(§1) The efficacy of a selection of the prepared analogs was explored to determine their ability to inhibit free fatty acid (FFA) generation from recombinant human lipases while retaining stability. To test these features, the analogs were dissolved in ethanol (200 mM stock) and further diluted to a 600 micromolar (0.3% ethanol) working stock in PBS. The agents were incubated with the recombinant enzymes in serial ⅓ dilutions spanning a range of 200 to 0.3 micromolar for 30 minutes, and then added to the substrate 1 mM glyceryl trilinoleate (GTL) in PBS, pH 7.4 along with cofactor colipase (CLPS; 0.5 mcg/ml).

Series [3] has as its target T3, carboxyester lipase (hCEL) (Homo sapiens, UniProt P19835).
T3 sequence (P19835 21-753): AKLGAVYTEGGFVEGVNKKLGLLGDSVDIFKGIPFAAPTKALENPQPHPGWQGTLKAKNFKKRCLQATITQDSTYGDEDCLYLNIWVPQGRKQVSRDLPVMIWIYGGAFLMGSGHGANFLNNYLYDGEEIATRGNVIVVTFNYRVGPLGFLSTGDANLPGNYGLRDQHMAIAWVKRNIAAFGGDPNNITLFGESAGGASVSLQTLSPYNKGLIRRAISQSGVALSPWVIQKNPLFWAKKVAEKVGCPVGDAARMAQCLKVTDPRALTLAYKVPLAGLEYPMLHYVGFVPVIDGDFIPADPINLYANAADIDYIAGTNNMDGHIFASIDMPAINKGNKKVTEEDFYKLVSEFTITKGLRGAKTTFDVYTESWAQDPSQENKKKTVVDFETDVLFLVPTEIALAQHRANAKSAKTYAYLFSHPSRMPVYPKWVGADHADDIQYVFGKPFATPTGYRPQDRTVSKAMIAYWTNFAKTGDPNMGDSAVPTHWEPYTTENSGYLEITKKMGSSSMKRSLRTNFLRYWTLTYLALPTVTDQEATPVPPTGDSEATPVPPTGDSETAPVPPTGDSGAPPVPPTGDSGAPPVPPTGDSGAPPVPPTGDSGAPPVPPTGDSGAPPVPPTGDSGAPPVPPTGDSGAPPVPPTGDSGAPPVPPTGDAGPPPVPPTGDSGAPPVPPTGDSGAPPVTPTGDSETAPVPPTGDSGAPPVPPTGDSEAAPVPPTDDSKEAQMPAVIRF
The experiment in a line: FFA generation by recombinant hCEL. In kind it is biochemical. The note with it: % FFA generation; read-out: IC50 against hCEL. The method, then:
as §1
(§2) These lipases form 15-30% of pancreatic lipases.

In series [4] the test system is Mouse pancreatic acinar cells. The experiment in a line: Toxicity study in pancreatic acinar cells (ATP levels, LDH leakage). The class given is cell-based. The note with it: 4 hours, 20-200 micromolar range. On the procedure:
Toxicity studies of the relevant compounds were also performed using by diluting the original ethanol stock 200 mM into the incubation medium for acinar cells (HEPES buffer, pH 7.4, as described by Navina et al) 600 micromolar stock solutions of the compounds in 0.3% ethanol in PBS. These were added to acinar cells at ⅓ dilutions starting at 200 micromolar. Mouse pancreatic acinar ATP levels and LDH leakage were measured over 4 hours and compared to control. Any number positive over control indicates % injury greater than control acini.

In series [5] the test system is acinar cells incubated with GTL. The experiment in a line: GTL induced acinar injury (LDH leakage). The note with it: 10 micromolar. The class given is cell-based.
Excerpt: as §2

In series [6] the target is T4, recombinant human pancreatic lipase related protein 2 (hPLRP2) (Homo sapiens, UniProt P54317).
T4 sequence (P54317 18-469): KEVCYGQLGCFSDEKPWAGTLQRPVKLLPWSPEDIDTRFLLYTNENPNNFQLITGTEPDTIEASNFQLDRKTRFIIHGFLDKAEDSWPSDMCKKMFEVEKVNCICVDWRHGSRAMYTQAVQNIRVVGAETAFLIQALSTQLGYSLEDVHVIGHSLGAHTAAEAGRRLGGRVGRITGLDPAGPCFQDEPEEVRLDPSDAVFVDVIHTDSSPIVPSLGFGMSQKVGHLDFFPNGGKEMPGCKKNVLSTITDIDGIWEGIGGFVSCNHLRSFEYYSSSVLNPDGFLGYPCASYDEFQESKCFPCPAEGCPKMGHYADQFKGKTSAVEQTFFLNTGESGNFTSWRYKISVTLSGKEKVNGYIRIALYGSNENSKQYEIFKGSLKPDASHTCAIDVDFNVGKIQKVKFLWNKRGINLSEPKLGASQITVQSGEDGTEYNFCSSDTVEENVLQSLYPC
Briefly: FFA generation by recombinant hPLRP2. In kind it is biochemical. Conditions: % FFA generation; read-out: IC50 against hPLRP2. On the procedure:
as §1, §2

Series [7] has as its system ob/ob mice with severe pancreatitis. Briefly: Caerulein-induced severe pancreatitis in obese ob/ob mice. The note with it: 20 mg/kg single intraperitoneal dose.
Protocol: Genetically obese male ob/ob mice (50-60 gm) were used and baseline tail vein blood draw was collected for serum lipase, triglycerides, and BUN (blood urea nitrogen). […] Severe pancreatitis was induced by implanting an alzet pump subcutaneously containing 2.5 mg/ml caerulein, which was administered at a dose of 50 mc/kg/hr. Six hours later a tail vein sample (50 microliters) was tested for serum lipase to verify an increase >3 fold basal.
Animals were sacrificed if they were moribund.

“Also recorded” adds a separate entry of the source.

The IC50 is the concentration needed to halve the response being measured. For `CCCCCCCCCCC[C@@H](C[C@@H]1OC(=O)[C@H]1CC)OC(=O)[C@H](C)NC=O` [Compound 767], the “efficacy in the lipase activity assay compared with orlistat when fresh” value at pancreatic lysate lipase (fresh solution) is “equivalent efficacy”. Further, the “efficacy as a solution when left overnight” value on pancreatic lysate lipase (solution left overnight) is listed as “significantly retained its efficacy”. Also, the “efficacy against mouse pancreatic lysates” value on pancreatic lysate lipase (summary of strengths of 767) is given as “higher efficacy”. Moreover, the “lipolysis by P. acnes” value in series [1] is recorded as “inhibited”. The “IC50 against hPNLIP, fold lower than orlistat or 741” value in series [2] (in the presence of colipase (CLPS), 1 mM GTL substrate) is reported as 50 ×. In series [2] (retention of inhibition after overnight storage), the “stability in aqueous solution” value is given as “best stability; also recorded: better stability in aqueous media”. The IC50 in series [2] (solution stored overnight, with colipase, read-out: IC50 against hPNLIP when stored overnight) is less than 2 µM. Also, in series [2] (summary of strengths of 767), the “potency against the most prevalent lipase (hPTL)” value was “higher potency”. Moreover, the IC50 in series [3] was not above 2 µM. Also, the “toxicity to acinar cells” value in series [4] was “lower toxicity”. Besides, the “efficacy in reducing GTL induced acinar injury compared with orlistat” value in series [5] (LDH leakage) was “more efficacious”. Further, the “toxicity compared with orlistat” value in series [5] (acinar cells) was “less toxic”. Further, the IC50 in series [6] was not above 2 µM. Further, in series [7], the 5 day survival is listed as 8/8; the “PD (pulse distention, shock)” value was 290±20 μm; the UFAs is 2.4 ± 0.4 mM; the hypertriglyceridemia result is “without the hypertriglyceridemia”. Also, in series [7], the “leucopenia (mice affected)” value is on record as 0/8, the serum calcium amounted to 8.8 ± 1.0 mg/dL and the “temperature (hypothermia)” value was determined as 94.1±0.8 ° F. Also, the “BUN (peak)” value in series [7] (caerulein pancreatitis) was found to be 18.5 ± 0.9 mg/dL.
